In the assay the test system is Rat pancreatic cancer cell line RIN-14B. As to the kind of experiment: Serotonin (5-HT) release test in cultured serotonin-producing cells, 5-HT measured by EIA. Format: cell-based. The conditions noted are these: positive control, final concentration 100 μmol/L, 1 hour culture. The method, then: The crude drug mixture of the proportions presented in Table 1 was extracted by heating at 100° C. for 1 hour with purified water used in 10 times the amount of the mixture weight, and the extract was processed into a powder to obtain a Koi-free Daikenchuto extract powder. The Koi-free Daikenchuto extract powder was used to prepare a 100 mg/mL DMSO suspension, and the suspension was mixed with an 88.8 mg/mL maltose aqueous solution at a 1:9 ratio to prepare a […] Daikenchuto solution. The solution was diluted with 0.1% BSA-Hanks buffer* to make the concentration 9 mg/mL and subjected to 15-min sonication to prepare a Daikenchuto test sample.
Separately, a DMSO solution of 100 mmol/L AITC was prepared as a positive control sample by adding allyl isothiocyanate (AITC; Wako Pure Chemical Industries, Ltd.) to DMSO. […]
The plate was washed three times with a washing buffer attached to the kit (300 μL/well) to remove the free components. […] After confirming the development of color, the reaction was stopped by adding a reaction stopper ([…] and the absorbance at 405 nm was measured. The results are presented in FIG. 1.

Consider `C=CCN=C=S` [AITC, allyl isothiocyanate], for which the “5-HT concentration compared with the control” value is “evidently higher”.
